Consider four compounds from publication PMC11361584 (PLOS ONE, 2024).

Details of data set [1]: method as in PMID 12236477. As to conditions: metabolites of omeprazole; cited from earlier work.
Data set [2] is described as follows: Pharmacokinetics of levosulpiride 50 mg alone and co-administered with omeprazole 40 mg in healthy human volunteers (Phase-1). The class given is in vivo. The conditions noted are these: for AUC(0-inf) / AUC(0-t) / Cmax / Tmax / half-life: human, plasma, oral; for CL/F: healthy human volunteers (n = 20), mean ± SD. The protocol:
(§1) The developed method was applied for evaluation of pharmacokinetics drug-drug interaction between LSP and OMP in healthy human volunteers (n = 20). Both the drugs were administered to the healthy volunteers, their blood samples were collected at specified time points and analyzed for the drug content, using the developed method. Written consent form was signed by all the volunteers and purpose of the study was explained to them. They were physically examined and medical history was recorded. Age of the volunteers was 20–28 years, with mean body mass index (BMI) of […]. Complete blood count, creatinine clearance, and liver function tests of all the healthy human volunteers were performed. All the volunteers were non-smokers and had no history of addiction. They were instructed not to take any medicines for two weeks before the study.
(§2) The study was conducted according to the “World Medical Association Declaration of Helsinki-Ethical principles of medical research involving human subjects” and its amendments. This study was approved by the ethical committee, Department of Pharmacy, University of Swabi, KP, Pakistan (Application number F.NO.UOS/2022/Pharm.02). It was an open-label, randomized, crossover, pharmacokinetic interaction study. The volunteers were divided into two groups of same size (n = 10) and the trial was conducted in two phases and two sequences, as follows;
Phase-1: First phase of the study consisted of two cycles with a wash out period of 14 days. During first phase of the study;
• Group-I: OMP 40 mg was administered twice a day for 6 days, and on the 7th day a single dose of LSP 50 mg was administered • Group-II: LSP 50 mg was administered alone as a single dose
Blood samples (3 mL) were collected at 0, 0.25, 0.5, 1, 2, 3, 4, 6, 8, 12, 24 and 36 hours. After 14 days washout period;
• Group-I: LSP 50 mg was administered alone • Group-II: OMP 40 mg, was administered twice a day for 6 days, on the 7th day LSP 50 mg was administered
(§3) The pharmacokinetic parameters were determined using non-compartmental analysis using PK-Summit (version 2.0.2). The plasma concentration of the drug (ng/mL) versus time (hour) profile was constructed for both drugs when administered alone and in combination with each another. The pharmacokinetic parameters like peak plasma concentration (Cmax), time to reach peak plasma concentration (Tmax), area under the concentration-time curve from zero time to time-t (AUC0-t) i.e. AUC0-36 for LSP and AUC0-12 for OMP, area under the concentration-time curve from zero time to infinity (AUC0-∞), elimination half-life (t1/2) and clearance (CL) were determined.
(§4) All the analysis was performed as per ICH guidelines using mean, standard deviation, and relative standard deviation. In the pharmacokinetic studies, the parameter values were compared using a t-test. The P-value (t-test) was calculated using the IBM SPPS statistics version 20. A p < 0.05 (95% confidence interval) was considered to be significant.

Data set [3] is described as follows: Stability of spiked human plasma samples at LQC and HQC at different temperatures. It counts as in vitro ADME. As to conditions: plasma sample. The protocol: For preparation of plasma samples, blood was collected from human volunteer and centrifuged to separate the cellular components. Plasma was de-proteinated with acetonitrile (two times volume of plasma) and was used for spiking the analytes. A liquid-liquid extraction method, reported by Jin et al., [18], with slight modification was used for extraction of LSP and OMP. Known amount of LSP, OMP and IS were added to plasma (1 mL), and vortexed for 30 sec. 4 ml of extraction solvent (mixture of ethyl acetate and dichloromethane in 4:1 by volume) was added, vortexed for 2 min and centrifuged at 3000 × g for 10 min. The supernatant (organic) layer was separated and dried under a gentle stream of nitrogen gas. The dried residue was reconstituted with 0.2 mL of mobile phase and an aliquot (20 μL) was injected into the HPLC system. Blank and zero samples were also treated in the same manner.
The stability of the samples was also evaluated at the level of LQC and HQC of both the analytes. The LQC were 10 and 30 ng/mL while the HQC were 120 and 1200 ng/mL for LSP and OMP, respectively. […] The sample stored at –20 °C involved freeze-thawed cycles at a gap of 12 hours between the two-consecutive freeze-thawed cycles.
The stability of the samples was evaluated for short term and relatively long term (one month). […] The % recovery was calculated by comparing the % recovery (concentration recovered) with freshly prepared spiked samples.

For data set [4] the following is noted: cited from earlier work.
The nature of data set [5]: Pharmacokinetics of omeprazole 40 mg alone and co-administered with levosulpiride 50 mg in healthy human volunteers (Phase-2). The class given is in vivo. The protocol: as §1, §2
Phase-2 of the study was started after one month of the completion of Phase-1, as follows;
• Group-I: LSP 50 mg was given for 6 days twice a day and on the 7th day single dose of OMP 40 mg was administered • Group-II: OMP 40 mg was administered alone.
The blood was sampled at 0, 0.25, 0.5, 1, 2, 3, 4, 6, 8, and 12 hours.
After 14 days washout period, the pattern of drug administration was reversed as follows;
• Group-I: OMP 40 mg was administered alone. • Group-II: LSP 50 mg was given for 6 days twice a day and on the 7th day single dose of OMP 40 mg was administered
as §3, §4

Where [6] appears, read: levosulpiride with omeprazole versus alone, not significant.
Where [7] appears, read: plasma, oral, omeprazole 40 mg alone, healthy human volunteers (n = 20), mean ± SD.

The structures appear in SMILES notation. Read-outs that look alike come from different tables or passages of the source.

With `COc1ccc2nc([S+]([O-])Cc3ncc(CO)c(OC)c3C)[nH]c2c1` (stereo not shown) [5-hydroxy omeprazole], the pharmacological activity result in data set [1] was “pharmacologically inactive”.

Regarding `CCN1CCC[C@H]1CNC(=O)c1cc(S(N)(=O)=O)ccc1OC` [Levosulpiride], the values for the AUC(0-inf) in data set [2] and in data set [2] (50 mg) were 2210 ± 577 ng·h/mL and 1870 ± 627 ng·h/mL, respectively. Further, the exposure AUC(0-t) is 1770 ± 482 ng·h/mL in data set [2] and 1540 ± 473 ng·h/mL in data set [2] (50 mg). In addition, the Cmax came to 118 ± 26.3 ng/mL in data set [2] and 109 ± 24.9 ng/mL in data set [2] (50 mg). The Tmax in data set [2] amounted to 3.71 ± 0.75 h; in data set [2] (50 mg), 3.8 ± 1.05 h. Besides, the half-life is 12.7 ± 4.76 h in data set [2] and 13.3 ± 2.64 h in data set [2] (50 mg). Further, the apparent clearance (CL/F) in data set [2] (levosulpiride 50 mg alone) was 35832 ± 8402 mL/h; in data set [2] (levosulpiride 50 mg with omeprazole 40 mg) it was 30333 ± 6326 mL/h. Moreover, the “increase of AUC0-t” value in data set [2] (setting [6]) amounted to 14.52%. For the same compound, the “increase of AUC0-∞” value in data set [2] (setting [6]) is 18.36%. Moreover, the “increase of Cmax” value in data set [2] (setting [6]) came out at 8.79%. Also, the “reduction of CL” value in data set [2] (setting [6]) came out at 15.34%. The “% recovery (mean)” value is listed as 99.67% in data set [3] (High QC (120 ng/ml), 15 °C for 12 hours (autosampler temperature)); 99.17% in data set [3] (High QC (120 ng/ml), -20 °C for 24 hours); 98.33% in data set [3] (High QC (120 ng/ml), -20°C for one month, three freezed cycles); 98.00% in data set [3] (High QC (120 ng/ml), RT for 24 hours); 98.36% in data set [3] (Low QC (10ng/ml), 15 °C for 12 hours (autosampler temperature)); 98.75% in data set [3] (Low QC (10ng/ml), -20 °C for 24 hours). Moreover, the “% recovery (mean)” value in data set [3] (Low QC (10ng/ml), -20°C for one month, three freezed cycles) amounted to 96.90%; in data set [3] (Low QC (10ng/ml), RT for 24 hours), 96.80%. The elimination half-life in data set [4] (depending upon route of administration, dosage form and dose) was 6 to 19 h; in data set [4] (orally administered LSP 25 mg), 12.0 h; in data set [4] (orally administered LSP 50 mg) it was 12.6 h; in data set [4] (orally administered LSP 100 mg) it was 14.3 h.

Take `COc1ccc2[nH]c([S+]([O-])Cc3ncc(C)c(OC)c3C)nc2c1` (stereo not shown) [Omeprazole]: the AUC(0-inf) stood at 6490 ± 1610 ng·h/mL in data set [5] (human, plasma, oral) and 6650 ± 1650 ng·h/mL in data set [5] (setting [7]). The AUC(0-t) was determined as 5950 ± 1430 ng·h/mL in data set [5] (human, plasma, oral) and 6090 ± 1480 ng·h/mL in data set [5] (plasma, oral, omeprazole 40 mg alone, AUC0-12, healthy human volunteers (n = 20), mean ± SD). Moreover, the time to peak (Tmax) in data set [5] (human, plasma, oral) was found to be 1.85 ± 0.83 h; in data set [5] (setting [7]), 1.95 ± 0.99 h. Moreover, the half-life in data set [5] (human, plasma, oral) was 2.23 ± 1.03 h; in data set [5] (setting [7]) it was 2.3 ± 0.94 h. For the same compound, the apparent clearance CL/F in data set [5] (omeprazole 40 mg alone, healthy human volunteers (n = 20), mean ± SD) was found to be 7118.71 ± 2407.41 mL/h; in data set [5] (omeprazole 40 mg with levosulpiride 50 mg, healthy human volunteers (n = 20), mean ± SD), 7100.69 ± 2001.55 mL/h. Also, the Cmax in data set [5] (plasma, oral, omeprazole 40 mg single dose administered alone, healthy human volunteers (n = 20), mean ± SD) was 1140 ± 262 ng/mL. In addition, the “% recovery (mean)” value turned out to be 99.31% in data set [3] (High QC (1200 ng/ml), 15 °C for 12 hours (autosampler temperature)); 99.48% in data set [3] (High QC (1200 ng/ml), -20 °C for 24 hours); 98.80% in data set [3] (High QC (1200 ng/ml), -20°C for one month, three freezed cycles); 98.35% in data set [3] (High QC (1200 ng/ml), RT for 24 hours); 98.66% in data set [3] (Low QC (30 ng/ml), 15 °C for 12 hours (autosampler temperature)); 99.33% in data set [3] (Low QC (30 ng/ml), -20 °C for 24 hours). Moreover, the “% recovery (mean)” value in data set [3] (Low QC (30 ng/ml), -20°C for one month, three freezed cycles) was 98.73%; in data set [3] (Low QC (30 ng/ml), RT for 24 hours), 96.11%.

`COc1ccc2nc(S(=O)(=O)Cc3ncc(C)c(OC)c3C)[nH]c2c1` [omeprazole sulfone]: the pharmacological activity entry in data set [1] was “pharmacologically inactive”.
